Measurements taken from article PMC10281726 (Journal of Food and Drug Analysis, 2023).

Experiments:
Type in all cases: biochemical
MKNK1 = MKNK1 (Homo sapiens, UniProt Q9BUB5); test: kinase panel; details: read-out: % inhibition at 3 μM
MINK1 = MINK1 (Homo sapiens, UniProt Q8N4C8); test: kinase panel; details: read-out: % inhibition at 3 μM
VRK2 = VRK2 (Homo sapiens, UniProt Q86Y07); test: kinase panel; details: read-out: % inhibition at 3 μM
STK3 = target: T1, STK3 (Homo sapiens, UniProt Q13188); test: kinase panel; details: read-out: % inhibition at 3 μM
T1 sequence (Q13188 1-491): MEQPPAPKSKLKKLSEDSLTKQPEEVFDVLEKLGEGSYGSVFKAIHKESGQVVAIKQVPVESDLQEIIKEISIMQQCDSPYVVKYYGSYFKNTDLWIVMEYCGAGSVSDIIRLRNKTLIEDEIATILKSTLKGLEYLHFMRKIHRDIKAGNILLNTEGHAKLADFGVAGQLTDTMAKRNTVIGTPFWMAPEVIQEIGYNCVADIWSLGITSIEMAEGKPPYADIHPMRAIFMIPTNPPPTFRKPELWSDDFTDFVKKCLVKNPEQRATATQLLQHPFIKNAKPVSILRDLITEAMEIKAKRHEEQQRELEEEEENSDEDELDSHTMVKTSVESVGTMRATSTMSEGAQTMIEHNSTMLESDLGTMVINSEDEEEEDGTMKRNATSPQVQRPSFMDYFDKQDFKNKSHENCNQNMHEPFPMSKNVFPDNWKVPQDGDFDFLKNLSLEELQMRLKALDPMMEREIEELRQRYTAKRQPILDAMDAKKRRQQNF

[1] = target: dual-specific tyrosine phosphorylation-regulated kinase 1A (DYRK1A) (Homo sapiens, UniProt Q13627); test: Z'-LYTE FRET-peptide kinase assay, dose response

MKNK1, sequence (Q9BUB5 whole entry): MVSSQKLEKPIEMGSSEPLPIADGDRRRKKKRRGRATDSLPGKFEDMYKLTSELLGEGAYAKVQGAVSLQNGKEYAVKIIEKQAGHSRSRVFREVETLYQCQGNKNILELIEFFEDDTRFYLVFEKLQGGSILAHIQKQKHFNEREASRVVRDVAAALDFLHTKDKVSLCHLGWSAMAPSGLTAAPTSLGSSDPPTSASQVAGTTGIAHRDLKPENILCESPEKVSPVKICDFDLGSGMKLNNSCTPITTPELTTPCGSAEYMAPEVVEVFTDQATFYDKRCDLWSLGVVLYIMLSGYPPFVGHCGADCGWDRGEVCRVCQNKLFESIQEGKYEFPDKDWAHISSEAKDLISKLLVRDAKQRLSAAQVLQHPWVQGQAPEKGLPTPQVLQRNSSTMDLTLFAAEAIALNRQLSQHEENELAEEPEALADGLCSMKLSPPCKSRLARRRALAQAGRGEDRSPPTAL
VRK2, sequence (Q86Y07 whole entry): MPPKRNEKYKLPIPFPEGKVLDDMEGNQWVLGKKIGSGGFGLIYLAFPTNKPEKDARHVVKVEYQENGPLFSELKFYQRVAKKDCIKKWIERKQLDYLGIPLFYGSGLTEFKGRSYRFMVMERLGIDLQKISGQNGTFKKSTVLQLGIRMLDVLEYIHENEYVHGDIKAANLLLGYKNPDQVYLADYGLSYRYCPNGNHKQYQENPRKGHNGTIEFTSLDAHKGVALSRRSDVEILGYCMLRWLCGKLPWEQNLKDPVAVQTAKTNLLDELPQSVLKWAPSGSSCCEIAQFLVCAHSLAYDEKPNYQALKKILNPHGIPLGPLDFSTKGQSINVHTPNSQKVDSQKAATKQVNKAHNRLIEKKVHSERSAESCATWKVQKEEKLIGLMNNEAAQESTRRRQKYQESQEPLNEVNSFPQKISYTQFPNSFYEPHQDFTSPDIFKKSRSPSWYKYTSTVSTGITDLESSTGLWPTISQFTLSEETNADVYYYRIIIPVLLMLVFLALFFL
MINK1, sequence (Q8N4C8 whole entry): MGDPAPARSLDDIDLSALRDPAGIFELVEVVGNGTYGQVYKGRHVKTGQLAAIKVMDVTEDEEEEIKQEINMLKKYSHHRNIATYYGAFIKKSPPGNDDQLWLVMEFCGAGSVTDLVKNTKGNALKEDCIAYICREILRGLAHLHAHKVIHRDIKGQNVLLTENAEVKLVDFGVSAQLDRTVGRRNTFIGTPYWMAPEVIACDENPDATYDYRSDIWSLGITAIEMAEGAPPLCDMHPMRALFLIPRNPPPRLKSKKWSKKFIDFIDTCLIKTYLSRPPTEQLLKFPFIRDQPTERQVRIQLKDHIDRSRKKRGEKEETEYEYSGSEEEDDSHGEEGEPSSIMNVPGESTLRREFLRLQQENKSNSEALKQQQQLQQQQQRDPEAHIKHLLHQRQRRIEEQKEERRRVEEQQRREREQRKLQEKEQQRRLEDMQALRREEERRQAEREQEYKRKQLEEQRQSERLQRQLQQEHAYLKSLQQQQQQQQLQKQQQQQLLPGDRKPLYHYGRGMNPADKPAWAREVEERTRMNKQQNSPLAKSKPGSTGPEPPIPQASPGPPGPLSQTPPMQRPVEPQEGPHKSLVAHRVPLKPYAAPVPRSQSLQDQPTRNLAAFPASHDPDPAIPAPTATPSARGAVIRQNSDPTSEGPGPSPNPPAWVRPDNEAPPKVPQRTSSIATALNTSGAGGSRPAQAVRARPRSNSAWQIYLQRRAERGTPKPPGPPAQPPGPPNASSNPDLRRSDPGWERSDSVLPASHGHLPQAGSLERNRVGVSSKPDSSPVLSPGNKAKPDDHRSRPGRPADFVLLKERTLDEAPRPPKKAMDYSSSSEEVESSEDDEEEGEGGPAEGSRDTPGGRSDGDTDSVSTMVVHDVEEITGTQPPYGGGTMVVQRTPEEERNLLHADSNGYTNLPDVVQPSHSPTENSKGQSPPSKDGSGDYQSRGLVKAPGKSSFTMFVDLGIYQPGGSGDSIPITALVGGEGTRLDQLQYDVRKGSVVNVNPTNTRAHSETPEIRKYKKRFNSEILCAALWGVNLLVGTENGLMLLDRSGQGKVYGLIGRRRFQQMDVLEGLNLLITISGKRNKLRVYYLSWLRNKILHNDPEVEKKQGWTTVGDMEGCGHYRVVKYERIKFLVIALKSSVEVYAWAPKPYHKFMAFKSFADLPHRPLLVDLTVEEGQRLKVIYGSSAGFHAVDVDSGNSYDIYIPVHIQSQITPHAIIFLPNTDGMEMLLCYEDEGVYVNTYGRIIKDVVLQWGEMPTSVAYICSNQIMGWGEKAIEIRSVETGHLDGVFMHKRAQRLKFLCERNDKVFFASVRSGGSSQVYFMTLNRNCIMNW

inhibition at 3 µM (MKNK1): > 50%
inhibition at 3 µM (MINK1): > 50%
inhibition at 3 µM (VRK2): > 50%
inhibition at 3 µM (STK3): > 50%
IC50 [1]: 0.909 µM
Structure (SMILES): O=c1oc2cc(O)ccc2c2ccc(O)cc12 [UA, Urolithin A]
